Measured values: US20230399320A1, “NOVEL CAPSID ASSEMBLY INHIBITOR” (Pelemed Co., Ltd., priority 2020, published 2023)
Where two headings read alike, the source gives them in different places.

What was measured:
[1] = biological target: T1, Cp149 (truncated form of a HBV core protein) (Hepatitis B virus genotype D subtype ayw, UniProt P03146); assay: Protein based assay: immunoblot analysis of in vitro HBV capsid assembly; format: biochemical; conditions: for inhibition at 10 µM: read-out: Protein based assay (% inhibition, 10 μM); for inhibition at 0.1 µM: read-out: Protein based assay (% inhibition), 0.1 μM; for inhibition at 1 µM: read-out: Protein based assay (% inhibition), 1 μM
T1 construct: Cp149 (amino acids 1-149) is a truncated form of a HBV core protein; histidine tag (cleaved yes); made in house; host or cells: Escherichia coli BL21(DE3)
Procedure: Cp149 (amino acids 1-149) is a truncated form of a HBV core protein. It was expressed in Escherichia coli, and the expressed protein was purified. The recombinant Cp149 was expressed in E. coli BL21(DE3) cells cultured in LB medium at 37° C. When the culture reached an OD600 of 0.7 to 0.8, expression of the culture was induced with 0.5 mM isopropyl-β-d-thiogalactopyranoside and the culture was cooled to 16° C. After 16 hours, the cells were harvested, flash-frozen in liquid nitrogen, and stored at −80° C. To purify Cp149, thawed cells were resuspended in lysis buffer (20 mM Tris-HCl pH 9.0, 200 mM NaCl, 10 mM imidazole, 10 μg per mL DNaseI, 1 mM phenylmethylsulfonyl fluoride), and treated with ultrasonic waves. The supernatant was loaded onto Ni-NTA affinity resin. Proteins were eluted using a 20 mM to 500 mM imidazole gradient dissolved in lysis buffer. After removing the histidine tag with thrombin, the protein was further purified by HiTrap Q anion exchange chromatography (17115401, GE Healthcare).
To determine the effect on in vitro Cp149 assembly, compounds of the present invention were added to the Cp149-containing suspension. The final concentration of Cp149 was 1 mg per mL, and the compounds of the present invention were added at concentrations of 0.1 to 10 μM. The suspension was mixed with reaction buffer (150 mM HEPES, pH 7.5, 15 mM NaCl) added in a 2:1 ratio. In vitro assembly was performed at 37° C. for 1 hour, and HBV capsid was detected by immunoblot analysis using an anti-HBV core antibody (1:2000, B0586, Dako).

[2] = tested on: HBV DNA; assay: Quantitative PCR for measuring HBV DNA in cells (HBV DNA quantification); format: cell-based
Procedure: After treating cells with the indicated compounds, HBV DNA secreted into the medium and intracellular HBV DNA were extracted, purified, and quantified by quantitative PCR. To isolate the secreted HBV DNA, the culture medium was recovered and centrifuged at 15,000×g to remove debris. The medium was diluted 1:1 with phosphate-buffered saline (PBS), and 1 M NaOH solution was added to a final concentration of 0.1 M. The mixture was incubated at 37° C. for 1 hour. The protein was denatured by adding 2M Tris-HCl solution (pH 7.5) to a final concentration of 0.2 M and incubating at 98° C. for 5 minutes. The protein precipitation was removed by centrifugation at 15,000×g, and the supernatant was subjected to PCR with HBV DNA primer and probe sets:
Forward: 5′-[…]-3′, Reverse: 5′-[…]-3′, Probe: 5′-[…]-3′.

[3] = Hepatitis B virus, read-out: HBV DNA quantification (IC50 μM)
[4] = Hepatitis B virus; read-out: HBV DNA quantification (IC50 μM)

T1 sequence (P03146 1-149): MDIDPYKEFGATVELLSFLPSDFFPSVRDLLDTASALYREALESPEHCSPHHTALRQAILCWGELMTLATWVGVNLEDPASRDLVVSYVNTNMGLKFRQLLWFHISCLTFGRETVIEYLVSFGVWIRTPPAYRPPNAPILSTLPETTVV

CC(C)(C)OC(=O)N1CCN(c2cc(NCc3cc(F)c(F)c(F)c3)nc(S(C)(=O)=O)n2)CC1 [Compound 22l, tert-butyl 4-(2-(methylsulfonyl)-6-(3,4,5-trifluorobenzylamino)pyrimidin-4-yl)piperazine-1-carboxylate]
inhibition at 10 µM [1]: 89% | IC50 [2, 3]: 1.02 µM

CS(=O)(=O)c1nc(Nc2cc(F)c(F)c(F)c2)cc(N2CCNCC2)n1 [Compound 26b, 2-(methylsulfonyl)-6-(piperazin-1-yl)-N-(3,4,5-trifluorophenyl)pyrimidin-4-amine]
inhibition at 0.1 µM [1]: 39% | inhibition at 1 µM [1]: 92% | IC50 [2, 4]: 0.203 µM

COc1ncccc1C(=O)NCCNc1cc(Nc2ccc(N3CCOCC3)cc2)nc([S+](C)[O-])n1 (stereo not shown) [Compound 5a, 2-methoxy-N-(2-(2-(methylsulfinyl)-6-(4-morpholinophenylamino)pyrimidin-4-ylamino)ethyl)nicotinamide]
IC50 [1]: 5300 nM | inhibition at 0.1 µM [1]: 43% | inhibition at 1 µM [1]: 83% | inhibition at 10 µM [1]: 95% | IC50 [2, 4]: 0.402 µM

CC(C)(C)OC(=O)N1CCN(c2cc(Nc3ccc(Cl)cc3)nc(S(C)(=O)=O)n2)CC1 [Compound 22c, tert-butyl 4-(6-(4-chlorophenylamino)-2-(methylsulfonyl)pyrimidin-4-yl)piperazine-1-carboxylate]
inhibition at 10 µM [1]: 68% | IC50 [2, 3]: 0.577 µM

CS(=O)(=O)c1nc(Nc2ccc(F)c(Cl)c2)cc(N2CCC(N)CC2)n1 [Compound 26i, 6-(4-aminopiperidin-1-yl)-N-(3-chloro-4-fluorophenyl)-2-(methylsulfonyl)pyrimidin-4-amine]
inhibition at 0.1 µM [1]: 52% | inhibition at 1 µM [1]: 99% | IC50 [2, 3]: 0.181 µM

CS(=O)(=O)c1nc(Nc2cc(F)c(F)c(F)c2)cc(Nc2cc(F)c(F)c(F)c2)n1 [Compound 18b, 2-(methylsulfonyl)-N^4,N^6-bis(3,4,5-trifluorophenyl)pyrimidine-4,6-diamine]
inhibition at 10 µM [1]: 69% | IC50 [2, 4]: 1.02 µM

CS(=O)(=O)c1nc(Nc2ccc(F)cc2)cc(N2CCNCC2)n1 [Compound 26a, N-(4-fluorophenyl)-2-(methylsulfonyl)-6-(piperazin-1-yl)pyrimidin-4-amine]
inhibition at 10 µM [1]: 86% | IC50 [2, 4]: 0.962 µM
